Among the data in ChEMBL document CHEMBL1151147, “Furanoid lignans from Larrea tridentata” (J Nat Prod, 1990) are Activity values, retold here.

SMILES strings stand for the structures. Calls of active or inactive are those of the source. The rule behind the calls is not given here.

What all share (type): functional, organism-based
Experiment [1] concerns Rattus norvegicus. The experiment in a line: Antiimplantation activity in Sprague-Dawley rat at 5 mg/kg, po administered postcoitally. Set-up: dose 5 mg/kg.
Experiment [2] concerns Rattus norvegicus. Briefly: Estrogenic activity in Sprague-Dawley rat at 30 mg/kg. Also noted: dose 30 mg/kg.
In experiment [3] the test system is Rattus norvegicus. Briefly: Antiimplantation activity in Sprague-Dawley rat assessed as decrease in implantation sites at 60 mg/kg administered postcoitally. Also noted: dose 60 mg/kg.
The test system of experiment [4] is Rattus norvegicus. The experiment in a line: Antiimplantation activity in Sprague-Dawley rat assessed as absence of viable fetuses at 15 mg/kg administered postcoitally. Also noted: dose 15 mg/kg.
For experiment [5], the system named is Rattus norvegicus. Briefly: Antiimplantation activity in Sprague-Dawley rat assessed as decrease in fertility rate at 30 mg/kg administered postcoitally. Set-up: dose 30 mg/kg.
Experiment [6] relates to Rattus norvegicus. Briefly: Antiimplantation activity in Sprague-Dawley rat assessed as decrease in implantation sites at 30 mg/kg administered postcoitally. Also noted: dose 30 mg/kg.
The test system of experiment [7] is Rattus norvegicus. The experiment in a line: Antiimplantation activity in Sprague-Dawley rat administered postcoitally.

For the compound `C[C@H]1[C@H](c2ccc(O)cc2)c2cc(O)c(O)cc2C[C@H]1C`, in experiment [1], the outcome was inactive. The result in experiment [2], in experiment [3], in experiment [4], in experiment [5] and in experiment [6] was Active. Also, the Activity result in experiment [7] is “Dose-dependent effect”.
